One data set relates to Zymoseptoria tritici. The data set is described as follows: Test A: wheat leaf blotch, preventive spray on wheat seedlings. The class given is in vivo. The following applies: Zymoseptoria tritici, 50 ppm, 100 = 100% disease control, 0 = no control, read-out: Test A disease control rating. Summed up: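 Wheat seedlings were sprayed to run-off with compound in acetone/water 50/50 containing 250 ppm PEG400 and inoculated with Z. tritici spores the next day. Plants were held 48 h saturated at 24 °C, then 17 days at 20 °C. Disease was rated 0–100% control relative to controls.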

In data set [1] the test system is Puccinia recondita f. sp. tritici. The data set is described as follows: Test B: wheat leaf rust, preventive spray on wheat seedlings. Format: in vivo. Particulars: Puccinia recondita, 50 ppm, 100 = 100% disease control, 0 = no control, read-out: Test B disease control rating. In short, it runs like this: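 Wheat seedlings sprayed to run-off with compound suspended at set ppm in 50/50 acetone/water (3% acetone pre-dissolution, 250 ppm PEG400); inoculated with rust spores next day. Held 24 h saturated at 20° C., then 7 days in growth chamber at 20° C.; visual rating, 0–100% disease control versus controls.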

Data set [2] deals with Blumeria graminis f. sp. tritici. The data set is described as follows: Test C: wheat powdery mildew, preventive spray on wheat seedlings. The following applies: Blumeria graminis, 50 ppm, 100 = 100% disease control, 0 = no control, read-out: Test C disease control rating. Format: in vivo. Summed up: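 Preventive assay: wheat seedlings sprayed to run-off with compound at the stated ppm (acetone/water 50/50, 250 ppm PEG400), dusted with B. graminis f. sp. tritici spores the following day, then kept 8 days at 20°C. Disease control visually scored 0-100 versus controls.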

A further data set deals with Phakopsora pachyrhizi. In words: Test D: Asian soybean rust, preventive spray on soybean seedlings. The class given is in vivo. The following applies: Phakopsora pachyrhizi, 216 h, 50 ppm, 100 = 100% disease control, 0 = no control, read-out: Test D disease control rating. Summed up:
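Soybean seedlings sprayed to run-off with compound suspension (ppm, in 50/50 acetone/water with 250 ppm PEG400), inoculated next day with P. pachyrhizi spores, held 24 h saturated at 22°C then 8 days at 22°C. Visual rating 0-100% disease control relative to controls.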

The next data set has as its system Botrytis cinerea. In words: Test E: tomato Botrytis, preventive spray on tomato seedlings. The following applies: Botrytis cinerea, 50 ppm, 100 = 100% disease control, 0 = no control, read-out: Test E disease control rating. Format: in vivo. In short, it runs like this:
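Compounds dissolved in acetone (3% of final volume), suspended in 50/50 acetone/water with 250 ppm PEG400, sprayed to run-off on seedlings. Spore inoculation next day; 48 h saturated atmosphere at 20° C, then 3 days at 24° C. Visual disease rating 0–100% control relative to controls.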

In another data set the test system is Alternaria solani. The data set is described as follows: Test F: tomato early blight, preventive spray on tomato seedlings. Particulars: Alternaria solani, 50 ppm, 100 = 100% disease control, 0 = no control, read-out: Test F disease control rating. Format: in vivo. In short, it runs like this: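 Compounds in acetone/water (50/50) with 250 ppm PEG400 were sprayed to run-off on tomato seedlings and inoculated with Alternaria solani spores the next day. Plants were held in saturated humidity at 27° C for 48 h, then at 20° C for 3 days. Disease control was rated visually, 0–100, against controls.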

The results in this text go back to patent US20240215577A1, “FUNGICIDAL PYRIDONES” (FMC Corporation, priority 2021, published 2024).

Compound `COc1cc(OC)c(Cl)c(-c2cn(C)c(=O)c(Cl)c2-c2ccc(F)cc2F)c1` [Compound 29, 3-chloro-5-(2-chloro-3,5-dimethoxyphenyl)-4-(2,4-difluorophenyl)-1-methyl-2(1H)-pyridinone] showed a melting point of 189 to 192 °C. Moreover, in the data set on Zymoseptoria tritici, the pest or weed control at 50 ppm is 100%. In addition, in data set [1], the pest or weed control at 50 ppm was determined as 100%. In data set [2], the pest or weed control at 50 ppm stood at 99%. Besides, the pest or weed control at 50 ppm in the data set on Phakopsora pachyrhizi came to 100%. Moreover, in the data set on Botrytis cinerea, the pest or weed control at 50 ppm is 94%. For the same compound, in the data set on Alternaria solani, the pest or weed control at 50 ppm was found to be 99%.
The compound `COc1ccc(Cl)c(-c2cn(C)c(=O)c(Cl)c2-c2ccc(F)cc2F)c1` [Compound 30, 3-chloro-5-(2-chloro-5-methoxyphenyl)-4-(2,4-difluorophenyl)-1-methyl-2(1H)-pyridinone] displayed a melting point of 192 to 195 °C. Besides, in the data set with Zymoseptoria tritici, the pest or weed control at 50 ppm stood at 100%. Also, the pest or weed control at 50 ppm in data set [1] came to 100%. Besides, in data set [2], the pest or weed control at 50 ppm is 100%. For the same compound, the pest or weed control at 50 ppm in the data set with Phakopsora pachyrhizi is 100%. In the data set on Botrytis cinerea, the pest or weed control at 50 ppm worked out at 94%. In addition, in the data set on Alternaria solani, the pest or weed control at 50 ppm was determined as 99%.
`COc1cc(OC)c(F)c(-c2cn(C)c(=O)c(Cl)c2-c2ccc(F)cc2F)c1` [Compound 51, 3-chloro-4-(2,4-difluorophenyl)-5-(2-fluoro-3,5-dimethoxyphenyl)-1-methyl-2(1H)-pyridinone] yielded a melting point of 155 to 158 °C. Besides, in the data set with Zymoseptoria tritici, the pest or weed control at 50 ppm stood at 100%. The pest or weed control at 50 ppm in data set [1] stood at 100%. Moreover, in data set [2], the pest or weed control at 50 ppm was found to be 98%. Moreover, the pest or weed control at 50 ppm in the data set on Phakopsora pachyrhizi amounted to 99%. Moreover, the pest or weed control at 50 ppm with Botrytis cinerea was determined as 98%. Besides, the pest or weed control at 50 ppm in the data set with Alternaria solani is 100%.

One may read the melting point as the temperature, or range, at which the solid turns liquid.
